The values that follow come from patent publication US20250368633A1, “AZEPINE FUSED RING COMPOUND AS RIPK1 INHIBITOR AND USE THEREOF” (ARTIVILA BIOPHARMA, priority 2022, published 2025).

Some results are limits rather than exact numbers.

One assay concerns the target T1, RIPK1 kinase (Homo sapiens, UniProt Q13546).
T1 construct: purchased Promega VA7593
T1 sequence (Q13546 1-671): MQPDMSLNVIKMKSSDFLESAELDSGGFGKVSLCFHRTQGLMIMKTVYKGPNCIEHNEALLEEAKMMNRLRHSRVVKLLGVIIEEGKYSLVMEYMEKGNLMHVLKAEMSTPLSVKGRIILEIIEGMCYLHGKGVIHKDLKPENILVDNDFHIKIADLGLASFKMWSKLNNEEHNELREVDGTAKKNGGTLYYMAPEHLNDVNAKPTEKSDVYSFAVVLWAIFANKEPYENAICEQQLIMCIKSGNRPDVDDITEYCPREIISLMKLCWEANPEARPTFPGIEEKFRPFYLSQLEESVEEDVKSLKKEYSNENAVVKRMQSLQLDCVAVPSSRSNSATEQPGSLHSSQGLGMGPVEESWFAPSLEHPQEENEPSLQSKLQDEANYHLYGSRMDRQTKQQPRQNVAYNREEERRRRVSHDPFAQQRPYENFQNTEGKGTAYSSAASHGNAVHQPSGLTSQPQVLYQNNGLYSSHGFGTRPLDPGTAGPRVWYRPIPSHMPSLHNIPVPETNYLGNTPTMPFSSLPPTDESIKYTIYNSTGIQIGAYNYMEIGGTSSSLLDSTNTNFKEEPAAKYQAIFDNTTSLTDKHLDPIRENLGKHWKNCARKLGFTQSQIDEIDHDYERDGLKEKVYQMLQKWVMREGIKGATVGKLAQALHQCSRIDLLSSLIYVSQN
Briefly: In vitro RIPK1 kinase activity assay (ADP-Glo), inhibition by compounds at 1 μM. The assay is classed as biochemical. Particulars: compound 1 μM; ATP 10 μM; MBP substrate 100 μg/mL; read-out: RIPK1 kinase activity inhibition rate range. The gist of the method:
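Compound and RIPK1 were preincubated 15 min at room temperature, then reacted 1 h with 10 μM ATP and 100 μg/mL MBP substrate in kinase buffer D. ADP formed was measured by ADP-Glo luminescence and converted to percent inhibition of kinase activity.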
For orientation: ADP-Glo first removes unused ATP, then detects ADP through luciferase.

The subject of another assay is U937 cells. Briefly: Inhibition rate of compound (1 μM) on necroptosis of U937 cells (TSZ-induced, CellTiter-Glo). It is filed as cell-based. Particulars: TSZ (hTNF-α, SM-164, Z-VAD-FMK) 20 hours. The method, boiled down:
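U937 cells were pretreated 15 min with compound, then necroptosis was triggered with TSZ (Z-VAD-FMK, hTNF-α, SM-164) for 20 h at 37° C. Viability was read as ATP by CellTiter-Glo luminescence, and inhibition (%) was taken relative to no-TSZ and TSZ-only wells.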
Background: ATP-based viability assays read luminescence as a measure of living cells.

Usually inhibition stands for the change of the read-out against control, counted positive when it falls. For `CN1C(=O)[C@@H](NC(=O)C(=O)NCCc2cccc(F)c2)COc2ccc(C#Cc3cccnc3)cc21` [Example 117, (S)—N^1-(3-fluorophenethyl)-N^2-(5-methyl-4-oxo-7-(pyridin-3-ylethynyl)-2,3,4,5-tetrahydrobenzo[b][1,4]oxazepin-3-yl)oxalamide], at RIPK1 kinase, the inhibition at 1 µM was in the range of 50 to 74%. Further, the “Inhibition rate range of compounds (1 μM) on U937 cell necroptosis” value (“Inhibition rate range of compounds” below) in the assay on U937 cells was “A (A: ≥90%)”.

On to `CN1C(=O)[C@@H](NC(=O)C(=O)NCCc2cccc(F)c2)COc2ccc(C#CCN3CCC(=O)CC3)cc21` [Example 118, (S)—N^1-(3-fluorophenethyl)-N^2-(5-methyl-4-oxo-7-(3-(4-oxopiperidin-1-yl)prop-1-yn-1-yl)-2,3,4,5-tetrahydrobenzo[b][1,4]oxazepin-3-yl)oxalamide], for which the inhibition at 1 µM on RIPK1 kinase is at least 75%. Also, the “Inhibition rate range of compounds” value in the assay with U937 cells is reported as “A (A: ≥90%)”.

`CN1C(=O)[C@@H](NC(=O)C(=O)NCCc2cccc(F)c2)COc2ccc(C#CCN3CCOCC3)cc21` [Example 120, (S)—N^1-(3-fluorophenethyl)-N^2-(5-methyl-7-(3-morpholinoprop-1-yn-1-yl)-4-oxo-2,3,4,5-tetrahydrobenzo[b][1,4]oxazepin-3-yl)oxalamide]: the inhibition at 1 µM on RIPK1 kinase was at least 75%. The “Inhibition rate range of compounds” value with U937 cells is recorded as “A (A: ≥90%)”.

Consider `CN1C(=O)[C@@H](NC(=O)C(=O)NCCc2cccc(F)c2)COc2ccc(C#CCN3C(=O)CCC3=O)cc21` [Example 122, (S)—N^1-(7-(3-(2,5-dioxopyrrolidin-1-yl)prop-1-yn-1-yl)-5-methyl-4-oxo-2,3,4,5-tetrahydrobenzo[b][1,4]oxazepin-3-yl)-N^2-(3-fluorophenethyl)oxalamide], for which, on RIPK1 kinase, the inhibition at 1 µM is at least 75%. The “Inhibition rate range of compounds” value in the assay with U937 cells is “A (A: ≥90%)”.

On to `CN1C(=O)[C@@H](NC(=O)C(=O)NCCc2cccc(F)c2)COc2ccc(C#CCN3CCNC(=O)C3)cc21` [Example 123, (S)—N^1-(3-fluorophenethyl)-N^2-(5-methyl-4-oxo-7-(3-(3-oxopiperazin-1-yl)prop-1-yn-1-yl)-2,3,4,5-tetrahydrobenzo[b][1,4]oxazepin-3-yl)oxalamide], for which the inhibition at 1 µM at RIPK1 kinase lay within 50 to 74%. For the same compound, in the assay on U937 cells, the “Inhibition rate range of compounds” value is given as “B (B: 50-89%)”.

Turning to `C[C@@H](NC(=O)C(=O)N[C@H]1COc2ccc(C#CCN3CC[C@@H](O)C3)cc2N(C)C1=O)c1ccccc1` [Example 128, N^1-((S)-7-(3-((R)-3-hydroxypyrrolidin-1-yl)prop-1-yn-1-yl)-5-methyl-4-oxo-2,3,4,5-tetrahydrobenzo[b][1,4]oxazepin-3-yl)-N^2-((R)-1-phenylethyl)oxalamide], the inhibition at 1 µM on RIPK1 kinase is at least 75%. In the assay with U937 cells, the “Inhibition rate range of compounds” value was “B (B: 50-89%)”.

For the compound `C[C@@H](NC(=O)C(=O)N[C@H]1COc2ccc(C#CCN3CC[C@H](O)C3)cc2N(C)C1=O)c1ccccc1` [Example 130, N^1-((S)-7-(3-((S)-3-hydroxypyrrolidin-1-yl)prop-1-yn-1-yl)-5-methyl-4-oxo-2,3,4,5-tetrahydrobenzo[b][1,4]oxazepin-3-yl)-N^2-((R)-1-phenylethyl)oxalamide], on RIPK1 kinase, the inhibition at 1 µM is at least 75%. Further, the “Inhibition rate range of compounds” value in the assay with U937 cells is recorded as “A (A: ≥90%)”.

For the compound `C[C@@H](NC(=O)C(=O)N[C@H]1COc2ccc(C#CC3(O)COC3)cc2N(C)C1=O)c1ccccc1` [Example 132, N^1-((S)-7-((3-hydroxyoxetan-3-yl)ethynyl)-5-methyl-4-oxo-2,3,4,5-tetrahydrobenzo[b][1,4]oxazepin-3-yl)-N^2-((R)-1-phenylethyl)oxalamide], the inhibition at 1 µM at RIPK1 kinase fell in the range of 50 to 74%. In addition, the “Inhibition rate range of compounds” value in the assay on U937 cells is “A (A: ≥90%)”.

Regarding `C[C@@H](NC(=O)C(=O)N[C@H]1COc2ccc(C#CC3CCN(CC#N)CC3)cc2N(C)C1=O)c1ccccc1` [Example 137, N^1-((S)-7-((1-(cyanomethyl)piperidin-4-yl)ethynyl)-5-methyl-4-oxo-2,3,4,5-tetrahydrobenzo[b][1, 4]oxazepin-3-yl)-N^2-((R)-1-phenylethyl)oxalamide], the inhibition at 1 µM at RIPK1 kinase was at least 75%. Further, in the assay on U937 cells, the “Inhibition rate range of compounds” value is on record as “A (A: ≥90%)”.

For the compound `C[C@@H](NC(=O)C(=O)N[C@H]1COc2ccc(C#CCN3CCC(O)CC3)cc2N(C)C1=O)c1ccccc1` [Example 138, N^1-((S)-7-(3-(4-hydroxypiperidin-1-yl)prop-1-yn-1-yl)-5-methyl-4-oxo-2,3,4,5-tetrahydrobenzo[b][1,4]oxazepin-3-yl)-N^2-((R)-1-phenylethyl)oxalamide], at RIPK1 kinase, the inhibition at 1 µM was at least 75%. For the same compound, the “Inhibition rate range of compounds” value in the assay on U937 cells was “A (A: ≥90%)”.

Consider `C[C@@H](NC(=O)C(=O)N[C@H]1COc2ccc(C#CCN3CCC(=O)CC3)cc2N(C)C1=O)c1ccccc1` [Example 139, N^1-((S)-5-methyl-4-oxo-7-(3-(4-oxopiperidin-1-yl)prop-1-yn-1-yl)-2,3,4,5-tetrahydrobenzo[b][1, 4]oxazepin-3-yl)-N^2-((R)-1-phenylethyl)oxalamide], for which the inhibition at 1 µM on RIPK1 kinase is at least 75%. Further, in the assay with U937 cells, the “Inhibition rate range of compounds” value is given as “B (B: 50-89%)”.

As for `C[C@@H](NC(=O)C(=O)N[C@H]1COc2ccc(C#CCN3CCOCC3)cc2N(C)C1=O)c1ccccc1` [Example 140, N^1-((S)-5-methyl-7-(3-morpholinoprop-1-yn-1-yl)-4-oxo-2,3,4,5-tetrahydrobenzo[b][1,4]oxazepin-3-yl)-N^2-((R)-1-phenylethyl)oxalamide], the inhibition at 1 µM at RIPK1 kinase was at least 75%. The “Inhibition rate range of compounds” value in the assay with U937 cells is given as “A (A: ≥90%)”.

Turning to `C[C@@H](NC(=O)C(=O)N[C@H]1COc2ccc(C#CCN3C(=O)CCC3=O)cc2N(C)C1=O)c1ccccc1` [Example 144, N^1-((S)-7-(3-(2,5-dioxopyrrolidin-1-yl)prop-1-yn-1-yl)-5-methyl-4-oxo-2,3,4,5-tetrahydrobenzo[b][1,4]oxazepin-3-yl)-N^2-((R)-1-phenylethyl)oxalamide], at RIPK1 kinase, the inhibition at 1 µM was at least 75%. Also, the “Inhibition rate range of compounds” value in the assay with U937 cells is listed as “A (A: ≥90%)”.

On to `C[C@@H](NC(=O)C(=O)N[C@H]1COc2ccc(C#CCN3CCNC(=O)C3)cc2N(C)C1=O)c1ccccc1` [Example 145, N^1-((S)-5-methyl-4-oxo-7-(3-(3-oxopiperazin-1-yl)prop-1-yn-1-yl)-2,3,4,5-tetrahydrobenzo[b][1, 4]oxazepin-3-yl)-N^2-((R)-1-phenylethyl)oxalamide], for which, at RIPK1 kinase, the inhibition at 1 µM is at least 75%. For the same compound, the “Inhibition rate range of compounds” value in the assay on U937 cells is “A (A: ≥90%)”.

As to `C[C@@H](NC(=O)C(=O)N[C@H]1COc2ccc(C#CCN(C)C)cc2N(C)C1=O)c1ccccc1` [Example 146, N^1-((S)-7-(3-(dimethylamino)prop-1-yn-1-yl)-5-methyl-4-oxo-2,3,4,5-tetrahydrobenzo[b][1,4]oxazepin-3-yl)-N^2-((R)-1-phenylethyl)oxalamide], the inhibition at 1 µM at RIPK1 kinase lay in the range of 50 to 74%. For the same compound, the “Inhibition rate range of compounds” value in the assay on U937 cells is “A (A: ≥90%)”.

As to `C[C@@H](NC(=O)C(=O)N[C@H]1COc2ccc(C#CC3CN(CC#N)C3)cc2N(C)C1=O)c1ccccc1` [Example 148, N^1-((S)-7-((1-(cyanomethyl)azetidin-3-yl)ethynyl)-5-methyl-4-oxo-2,3,4,5-tetrahydrobenzo[b][1, 4]oxazepin-3-yl)-N^2-((R)-1-phenylethyl)oxalamide], on RIPK1 kinase, the inhibition at 1 µM is at least 75%. For the same compound, the “Inhibition rate range of compounds” value with U937 cells is “A (A: ≥90%)”.

In the case of `C[C@@H](CNC(=O)C(=O)N[C@H]1COc2ccc(C#CCCO)cc2N(C)C1=O)c1ccccc1` [Example 155, N^1-((S)-7-(4-hydroxybut-1-yn-1-yl)-5-methyl-4-oxo-2,3,4,5-tetrahydrobenzo[b][1,4]oxazepin-3-yl)-N^2-((R)-2-phenylpropyl)oxalamide], the inhibition at 1 µM at RIPK1 kinase was at least 75%. Moreover, the “Inhibition rate range of compounds” value in the assay on U937 cells was “A (A: ≥90%)”.

`C[C@H](CNC(=O)C(=O)N[C@H]1COc2ccc(C#CCCO)cc2N(C)C1=O)c1ccccc1` [Example 156, N^1-((S)-7-(4-hydroxybut-1-yn-1-yl)-5-methyl-4-oxo-2,3,4,5-tetrahydrobenzo[b][1,4]oxazepin-3-yl)-N^2-((S)-2-phenylpropyl)oxalamide]: the inhibition at 1 µM on RIPK1 kinase lay in the range of 50 to 74%. Also, the “Inhibition rate range of compounds” value in the assay with U937 cells was “A (A: ≥90%)”.

As to `C[C@@H](CNC(=O)C(=O)N[C@H]1COc2ccc(C#CC3(O)COC3)cc2N(C)C1=O)c1ccccc1` [Example 158, N^1-((S)-7-((3-hydroxyoxetan-3-yl)ethynyl)-5-methyl-4-oxo-2,3,4,5-tetrahydrobenzo[b][1,4]oxazepin-3-yl)-N^2-((R)-2-phenylpropyl)oxalamide], the inhibition at 1 µM at RIPK1 kinase was at least 75%. For the same compound, in the assay on U937 cells, the “Inhibition rate range of compounds” value is listed as “A (A: ≥90%)”.
